A short description of this series: Single oral (PO) dose pharmacokinetics study in rats; plasma concentration of MDMA (and prodrug) by LC-MS/MS. Particulars: male SD rats.
Setting [1] is: 0.50 h after oral dosing of prodrug 10 mg/Kg.
[2] abbreviates: 1.00 h after oral dosing of prodrug 10 mg/Kg.
Setting [3] is: 2.00 h after oral dosing of prodrug 10 mg/Kg.
Setting [4] is: 4.00 h after oral dosing of prodrug 10 mg/Kg.
Setting [5] is: 7.00 h after oral dosing of prodrug 10 mg/Kg.
Where [6] appears, read: 24.0 h after oral dosing of prodrug 10 mg/Kg.

As to `CC(=O)OCC(C)(C)CC(=O)N(C)C(C)Cc1ccc2c(c1)OCO2` (stereo not drawn) [(3-{[2-(2H-1,3-Benzodioxol-5-yl)-1-methylethyl]-N-methylcarbamoyl}-2,2-dimethylpropyl acetate], the “Mean plasma concentration of metabolite MDMA” value (shortened to “Mean plasma concentration”) by setting is: under setting [1], “BLQ (BLQ: Below Lower Limit of Quantification (0.5 ng/mL))”; under setting [2], “BLQ (BLQ: Below Lower Limit of Quantification (0.5 ng/mL))”; under setting [3], “BLQ (BLQ: Below Lower Limit of Quantification (0.5 ng/mL))”; under setting [4], “BLQ (BLQ: Below Lower Limit of Quantification (0.5 ng/mL))”; under setting [5], “BLQ (BLQ: Below Lower Limit of Quantification (0.5 ng/mL))”; under setting [6], “BLQ (BLQ: Below Lower Limit of Quantification (0.5 ng/mL))”.
`CC(Cc1ccc2c(c1)OCO2)N(C)C(=O)CCCCC(=O)O` (stereo not drawn) [Adipate prodrug of MDMA, 5-{[2-(2H-1,3-Benzodioxol-5-yl)-1-methyl-ethyl]-N-methylcarbamoyl}valeric acid]: the “Mean plasma concentration” value under setting [1] was “BLQ (BLQ: Below Lower Limit of Quantification (0.5 ng/mL))”; the “Mean plasma concentration” value under setting [2] was “BLQ (BLQ: Below Lower Limit of Quantification (0.5 ng/mL))”; the “Mean plasma concentration” value under setting [3] is recorded as “BLQ (BLQ: Below Lower Limit of Quantification (0.5 ng/mL))”; the “Mean plasma concentration” value under setting [4] is recorded as “BLQ (BLQ: Below Lower Limit of Quantification (0.5 ng/mL))”; the “Mean plasma concentration” value under setting [5] was “BLQ (BLQ: Below Lower Limit of Quantification (0.5 ng/mL))”; the “Mean plasma concentration” value under setting [6] is listed as “BLQ (BLQ: Below Lower Limit of Quantification (0.5 ng/mL))”.
With `CC(Cc1ccc2c(c1)OCO2)N(C)C(=O)N(C)C` (stereo not drawn) [Dimethylurea prodrug of MDMA, 1-[2-(2H-1,3-Benzodioxol-5-yl)-1-methyl-ethyl]-1,3,3-trimethylurea], the “Mean plasma concentration” value runs as follows: under setting [1], “BLQ (BLQ: Below Lower Limit of Quantification (0.5 ng/mL))”; under setting [2], “BLQ (BLQ: Below Lower Limit of Quantification (0.5 ng/mL))”; under setting [3], “BLQ (BLQ: Below Lower Limit of Quantification (0.5 ng/mL))”; under setting [4], “BLQ (BLQ: Below Lower Limit of Quantification (0.5 ng/mL))”; under setting [5], “BLQ (BLQ: Below Lower Limit of Quantification (0.5 ng/mL))”; under setting [6], “BLQ (BLQ: Below Lower Limit of Quantification (0.5 ng/mL))”.
For the molecule `CCOC(=O)N(C)C(C)Cc1ccc2c(c1)OCO2` (stereo not drawn) [Ethyl carbamate prodrug of MDMA, Ethyl N-[2-(1,3-benzodioxol-5-yl)-1-methyl-ethyl]-N-methyl-carbamate], the “Mean plasma concentration” value runs as follows: under setting [1], “BLQ (BLQ: Below Lower Limit of Quantification (0.5 ng/mL))”; under setting [2], “BLQ (BLQ: Below Lower Limit of Quantification (0.5 ng/mL))”; under setting [3], “BLQ (BLQ: Below Lower Limit of Quantification (0.5 ng/mL))”; under setting [4], “BLQ (BLQ: Below Lower Limit of Quantification (0.5 ng/mL))”; under setting [5], “BLQ (BLQ: Below Lower Limit of Quantification (0.5 ng/mL))”; under setting [6], “BLQ (BLQ: Below Lower Limit of Quantification (0.5 ng/mL))”.
Take `CC(Cc1ccc2c(c1)OCO2)N(C)C(=O)CCCC(=O)O` (stereo not drawn) [Glutarate Prodrug of MDMA, 4-{[2-(2H-1,3-Benzodioxol-5-yl)-1-methyl-ethyl]-N-methylcarbamoyl}butyric acid]: the “Mean plasma concentration” value reads like this: under setting [1], “BLQ (BLQ: Below Lower Limit of Quantification (0.5 ng/mL))”; under setting [2], “BLQ (BLQ: Below Lower Limit of Quantification (0.5 ng/mL))”; under setting [3], “BLQ (BLQ: Below Lower Limit of Quantification (0.5 ng/mL))”; under setting [4], “BLQ (BLQ: Below Lower Limit of Quantification (0.5 ng/mL))”; under setting [5], “BLQ (BLQ: Below Lower Limit of Quantification (0.5 ng/mL))”; under setting [6], “BLQ (BLQ: Below Lower Limit of Quantification (0.5 ng/mL))”.

Values taken from US20240317724A1, “3,4-METHYLENEDIOXYMETHAMPHETAMINE AND RELATED PS[…] USES THEREOF” (Terran Biosciences Inc., priority 2021, published 2024).
